{
  "source": "patent US20180222953A1",
  "about": "“SARCOMERE BIOSENSOR AND METHODS OF USE THEREOF” (REGENTS OF THE UNIVERSITY OF MINNESOTA, priority 2017, published 2018)",
  "key": {"[1]": {"test_system": "isolated adult cardiac myocytes", "test": "Sarcomere length (SL) shortening in isolated Sarcometer Tg cardiac myocytes before and after treatment", "type": "cell-based, mouse", "settings": "0.2 Hz stimulation; for SL contractile amplitude: 37° C.", "procedure": "Mice were injected with 0.25 cc 10,000U/ml heparin (McKesson cat#NDC 63739-964-25) and anesthetized 10 minutes later with 0.15 cc 50 mg/ml sodium pentobarbital (Vortech Pharmaceuticals). The heart was rapidly excised and placed in ice cold Krebs-Henseleit buffer (Sigma cat#K3753) modified with 25 mM HEPES (Sigma cat#H4034), 10 mM 2,3-Butanedione monoxime (Sigma cat#B0753), 30 mM Taurine (Sigma cat#T0625) and the aorta was cannulated. The mounted heart was placed on a perfusion system at 37° C. The heart was perfused with calcium free modified Krebs-Henseleit buffer with 2 mg/ml crudely purified collagenase for 10 minutes. The heart was then removed from the cannula, the atria were removed and the ventricles were dissected into pieces approximately 2 mm in diameter. The dissected ventricular tissue was then gently mechanically triturated in collagenase to liberate isolated myocytes. After brief low-speed centrifugation, isolated myocytes were resuspended in nominal calcium and 0.025 mg/ml bovine serum albumin (HyClone cat#SH30574.03) in a modified Kreb-Henseleit buffer. After the final trituration step, calcium was added back to the buffer step wise until reaching a final concentration of 2 mM CaCl2. Myocytes were plated on laminin-coated (ThermoFisher cat#23017015) glass coverslips in M199 media (Gibco cat#31100-035) containing 5% fetal bovine serum (HyClone cat#SH30071.03) and incubated for one hour at 37° C. with 5% CO2. After the one hour incubation, the media was changed to serum free M199 media and the myocytes were used for experiments within 5 hours.\n(§1) For real-time simultaneous sarcomere length and biosensor measurements, a modified Ionoptix Calcium and Contractility system was used. Sarcomere length changes were detected at 240 Hz sampling rate and fluorescence measurements were detected at 1000 Hz sampling rate with two photomultipler tubes. Measurements were made at 37° C. and a stimulation frequency of 0.2 Hz unless specified otherwise. For biosensor measurements, a Xenon arc lamp was used and filtered with a 500/10 nm hard-coated bandpass filter before entering the microscope turret. The microscope turret featured a 505 dichroic long pass filter. Fluorescent light from the sample was shunted through microscope side port where it was split by a dichroic mirror with light above 650 nm going towards the Myocam for sarcomere length detection and light below 650 nm being further shunted to an additional filter cube. In this final filter cube, a 565 nm dichroic long pass mirror split the light again. Light with wavelengths below 565 nm corresponding to the Clover protein was further cleaned up by a 534/20 nm hard-coated bandpass filter before reaching the photomultiplier tuber and light with wavelengths above 565 nm was further cleaned up by a 592/43 nm hard-coated bandpass filter before reaching the photomultiplier tube. For calcium fluorescence measurements, the mouse myocytes were pre-loaded for 20 minutes in M199 solution containing 1 μM Fura-2 AM (ThermoFisher Cat #F1221), and a ten minute period was allowed for deesterification. For calcium fluorescence measurements the 360/380 nm ratio was determined. For each myocyte, several contractions were measured, averaged, and analyzed using the IonWizard software.\nEight to twelve week old mice of both sexes were injected with 0.25 cc 10,000U/ml heparin and anesthetized 10 minutes later with 0.15 cc 50 mg/ml sodium pentobarbital. The heart was rapidly excised and placed in ice cold Krebs-Henseleit buffer modified with 25 mM HEPES, 10 mM 2,3-Butanedione monoxime, 30 mM Taurine and the aorta was cannulated. The mounted heart was placed on a perfusion system at 37° C. The heart was perfused with calcium free modified Krebs-Henseleit buffer with 2 mg/ml crudely purified collagenase for 10 minutes. The heart was then removed from the cannula, the atria were removed and the ventricles were dissected into pieces approximately 2 mm in diameter. […]"}, "[2]": {"test_system": "sarcomere activation (Sarcometer cTnC biosensor) in live cardiac myocytes", "test": "Sarcometer Clover fluorescence (FRET) transient in live cardiac myocytes before and after treatment", "type": "cell-based, mouse", "settings": "0.2 Hz stimulation; for Sarcometer kinetics / Clover peak fluorescence intensity (Sarcometer amplitude): 37° C.", "procedure": "as §1\nEight to twelve week old mice of both sexes were injected with 0.25 cc 10,000U/ml heparin and anesthetized 10 minutes later with 0.15 cc 50 mg/ml sodium pentobarbital. The heart was rapidly excised and placed in ice cold Krebs-Henseleit buffer modified with 25 mM HEPES, 10 mM 2,3-Butanedione monoxime, 30 mM Taurine and the aorta was cannulated. The mounted heart was placed on a perfusion system at 37° C. The heart was perfused with calcium free modified Krebs-Henseleit buffer with 2 mg/ml crudely purified collagenase for 10 minutes. The heart was then removed from the cannula, the atria were removed and the ventricles were dissected into pieces approximately 2 mm in diameter. The dissected ventricular tissue was then gently mechanically triturated in collagenase to liberate isolated myocytes. After brief low-speed centrifugation, isolated myocytes were resuspended in nominal calcium and 0.025 mg/ml bovine serum albumin in a modified Kreb-Henseleit buffer. After the final trituration step, calcium was added back to the buffer step wise until reaching a final concentration of 2 mM CaCl2. Myocytes were plated on laminin-coated (ThermoFisher cat#23017015) glass coverslips in M199 media (Gibco cat#31100-035) containing 5% fetal bovine serum and incubated for one hour at 37° C. with 5% CO2. After the one hour incubation, the media was changed to serum free M199 media and the myocytes were used for experiments within 5 hours.\nFor real-time simultaneous sarcomere length and Sarcometer biosensor measurements, a modified Ionoptix Calcium and Contractility system was used. Sarcomere length changes were detected at 240 Hz sampling rate and fluorescence measurements were detected at 1000 Hz sampling rate with two photomultipler tubes (FIG. 9). Measurements were made at 37° C. and a stimulation frequency of 0.2 Hz unless specified otherwise. For Sarcometer measurements, a Xenon arc lamp was used and filtered with a 500/10 nm hard-coated bandpass filter before entering the microscope turret. The microscope turret featured a 505 dichroic long pass filter. […]"}, "[3]": {"test_system": "cardiac myocyte calcium transients", "test": "Fura-2 AM calcium transients in single cardiac myocytes", "type": "cell-based, mouse", "settings": "10 μM, n=4 pairs", "procedure": "For real-time simultaneous sarcomere length and biosensor measurements, a modified Ionoptix Calcium and Contractility system was used. Sarcomere length changes were detected at 240 Hz sampling rate and fluorescence measurements were detected at 1000 Hz sampling rate with two photomultipler tubes. Measurements were made at 37° C. and a stimulation frequency of 0.2 Hz unless specified otherwise. For biosensor measurements, a Xenon arc lamp was used and filtered with a 500/10 nm hard-coated bandpass filter before entering the microscope turret. The microscope turret featured a 505 dichroic long pass filter. […] For calcium fluorescence measurements, the mouse myocytes were pre-loaded for 20 minutes in M199 solution containing 1 μM Fura-2 AM (ThermoFisher Cat #F1221), and a ten minute period was allowed for deesterification. For calcium fluorescence measurements the 360/380 nm ratio was determined. For each myocyte, several contractions were measured, averaged, and analyzed using the IonWizard software.\nFor real-time simultaneous sarcomere length and Sarcometer biosensor measurements, a modified Ionoptix Calcium and Contractility system was used. Sarcomere length changes were detected at 240 Hz sampling rate and fluorescence measurements were detected at 1000 Hz sampling rate with two photomultipler tubes (FIG. 9). […] For calcium fluorescence measurements the 360/380 nm ratio was determined. […]"}, "TnC hydrophobic patch": {"target": "TnC hydrophobic patch (Homo sapiens, UniProt P63316)", "settings": "binds directly to the TnC hydrophobic patch; Oleszczuk et al. 2010; cited from earlier work"}, "[4]": {"settings": "10 μM, before vs after treatment"}, "[5]": {"settings": "10 μM, before vs after treatment, listed as PNB"}},
  "note": "“Also recorded” adds a separate entry of the source.",
  "data": [
    {"smiles": "COC(=O)N1CCN(Cc2cccc(NC(=O)Nc3ccc(C)nc3)c2F)CC1", "note": "[Omecamtiv mecarbil]", "values": [
      {"measurement": "SL contractile amplitude", "setting": "[1]; 250 nM, n=14 pairs", "value": "increased contractile amplitude"},
      {"measurement": "SL contractile amplitude", "setting": "[1]; 250 nM, n=14 pairs, listed as OM", "value": "significant increase SL amplitude"},
      {"measurement": "Sarcometer kinetics", "setting": "[2]; 250 nM", "value": "no effect"},
      {"measurement": "Clover peak fluorescence intensity (Sarcometer amplitude)", "setting": "[2]; 250 nM, n=17 pairs", "value": "no difference in peak fluorescence intensity"},
      {"measurement": "Clover peak fluorescence intensity (Sarcometer amplitude)", "setting": "[2]; 250 nM, n=17 pairs, listed as OM", "value": "no effect"}
    ]},
    {"smiles": "COc1ccc(-c2nc3ccc(C4=NNC(=O)CC4C)cc3[nH]2)cc1", "note": "(centres unmarked) [Pimobendan]", "values": [
      {"measurement": "SL contractile amplitude", "setting": "[1]; [4]", "value": "increased SL amplitude; also recorded: increased contractile amplitude"},
      {"measurement": "Clover peak fluorescence intensity (Sarcometer amplitude)", "setting": "[2]; [4]", "value": "significant increase in Clover signal amplitude; also recorded: increased peak fluorescence intensity"}
    ]},
    {"smiles": "NCCCCCCNS(=O)(=O)c1cccc2c(Cl)cccc12", "note": "[W7, N-aminohexyl-5-chloro-1-naphthalenesulfonamide]", "values": [
      {"measurement": "SL contractile amplitude", "setting": "[1]; [4]", "value": "reduced SL amplitude; also recorded: decreased contractile amplitude"},
      {"measurement": "Clover peak fluorescence intensity (Sarcometer amplitude)", "setting": "[2]; [4]", "value": "significantly depressed; also recorded: decreased peak fluorescence intensity"},
      {"measurement": "calcium transient amplitude or kinetics", "setting": "[3]", "value": "unaltered; also recorded: no changes in calcium amplitude or kinetics"},
      {"measurement": "decrease of TnI switch peptide binding", "setting": "TnC hydrophobic patch", "value": 13, "unit": "fold"}
    ]},
    {"smiles": "CC(C)NCC(O)c1ccc(O)c(O)c1", "note": "(centres unmarked) [isoproterenol]", "values": [
      {"measurement": "SL shortening amplitude", "setting": "[1]; 50 nM, 30° C., before vs after treatment, n=34 pairs", "value": "increase myocyte contraction; also recorded: increased shortening amplitude"},
      {"measurement": "sarcomere dynamics kinetics (SL relaxation)", "setting": "[1]; 50 nM, 30° C., n=34 pairs", "value": "speed SL relaxation; also recorded: faster kinetics"},
      {"measurement": "Clover fluorescence kinetics (transient decay rate)", "setting": "[2]; 50 nM, 30° C., n=24 pairs", "value": "significantly faster; also recorded: faster kinetics"},
      {"measurement": "peak Clover fluorescence intensity", "setting": "[2]; 50 nM, 30° C., n=24 pairs", "value": "increased peak Clover fluorescence intensity"}
    ]},
    {"smiles": "Cc1ccc2c(c1)C(=O)[C@]1(O)CCN(c3ccc([N+](=O)[O-])cc3)C1=N2", "note": "[para-Nitroblebbistatin]", "values": [
      {"measurement": "SL contractile amplitude", "setting": "[1]; [4]", "value": "decreased contractile amplitude"},
      {"measurement": "SL contractile amplitude", "setting": "[1]; [5]", "value": "effectively blocked contraction"},
      {"measurement": "Sarcometer kinetics", "setting": "[2]; 10 μM", "value": "no significant effect"},
      {"measurement": "Clover peak fluorescence intensity (Sarcometer amplitude)", "setting": "[2]; [4]", "value": "no difference in peak fluorescence intensity"},
      {"measurement": "Clover peak fluorescence intensity (Sarcometer amplitude)", "setting": "[2]; [5]", "value": "no significant effect"}
    ]}
  ]
}
